Molecules are shown by their SMILES.

IC50 data for 24 molecules are collected here from patent US20250179032A1, “HETEROCYCLIC INHIBITORS OF GLUT9 FOR TREATMENT OF DISEASE” (HORIZON THERAPEUTICS IRELAND DAC, priority 2022, published 2025).

This assay addresses T1, H. sapiens SLC2A9 variant 2 (GLUT9B) (Homo sapiens, UniProt Q9NRM0).
T1 sequence (Q9NRM0 1-511 isoform Q9NRM0-2): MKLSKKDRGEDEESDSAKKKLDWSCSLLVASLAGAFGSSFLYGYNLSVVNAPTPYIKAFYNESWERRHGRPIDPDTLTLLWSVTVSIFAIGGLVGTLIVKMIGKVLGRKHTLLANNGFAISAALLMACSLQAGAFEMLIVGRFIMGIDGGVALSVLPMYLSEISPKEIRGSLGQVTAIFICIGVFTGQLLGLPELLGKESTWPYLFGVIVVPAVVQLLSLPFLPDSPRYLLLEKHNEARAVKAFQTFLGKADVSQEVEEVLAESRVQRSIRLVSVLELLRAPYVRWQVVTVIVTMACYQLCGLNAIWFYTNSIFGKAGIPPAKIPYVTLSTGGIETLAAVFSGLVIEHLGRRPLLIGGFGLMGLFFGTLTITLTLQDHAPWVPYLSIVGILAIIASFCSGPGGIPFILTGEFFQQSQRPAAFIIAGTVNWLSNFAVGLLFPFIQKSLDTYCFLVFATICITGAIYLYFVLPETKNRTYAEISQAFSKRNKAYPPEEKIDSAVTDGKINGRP
Briefly: GLUT9 functional assay: uric acid uptake in HEK293T cells, allantoin formation by MS/MS as proxy of GLUT9B inhibition. The assay is classed as cell-based. Particulars: 15 minute assay; HEK293T cells stably expressing GLUT9B and transiently A. oryzae uricase; uric acid 0.3 mM, 37° C.; read-out: 15 min IC50. On the procedure: Uric acid stocks (9 mM, Millipore-Sigma, U0881) were generated in 125 mM choline chloride (Millipore-Sigma, C7017) and the concentration was determined at 293 nm using a molar extinction coefficient of 9600 M- ^1 cm- ^1) after collecting the absorbance spectra from 220-350 nm. Allantoin stocks (12 mM Toronto Research Chemicals, A540500) were generated in LCMS grade water (Thermo Scientific, 51140). The concentration of allantoin was determined by qNMR (Michigan State University). HEK293T cells were purchased from ATCC (HEK 293T/17 SF). Hanks buffered saline salts (HBSS) was purchased from Millipore-Sigma (H6648-1L).
SLC2A9 variant 2 was assayed in sodium gluconate buffer was composed of 125 mM sodium gluconate (TCI Chemicals, G0041-500G), 4.8 mM potassium gluconate (TCI Chemicals, G0040-500G), 1.2 mM calcium gluconate (TCI Chemicals, G0037-500G), 1.2 mM potassium phosphate (pH 7.4, Millipore-Sigma, 17835), 1.2 mM MgSO4, Millipore-Sigma, M2773-500G), 25 mM HEPES pH 7.3, (Millipore-Sigma, 54457). The final pH of the buffer was 7.4. Urate 1 was assayed in the same buffer save the pH was made to be 5.5 using 25 mM MES (pH 5.5) buffer vs 25 mM HEPES (pH 7.3) buffer.
Human untagged clone for (untagged)-human solute carrier family 2 member 9 (SLC2A9), transcript variant (SLC2A9/NM_001001290, FIG. 1 and FIG. 2; SEQ ID NOS: 3 and 4) was purchased from Origene (Cat #SC319239). SLC2A9 variant 2 (GLUT9B) gene was amplified by PCR using the following primer to allow for the introduction of EcoR1 and Not1 sites using the primers below.
HEK293T clonal stable cell lines containing the SLC2A9 variant 2 construct in the bicistronic pIRESpuro vector were generated using Viafect™ (Promega E4981) as per the manufactures instructions and puromycin selection (5 μg×mL^−1).
Uric acid uptake was measured in HEK293T cells stably expressing H. sapiens SLC2A9 variant 2 (GLUT9B) and transiently expressing A. oryzae uricase. Thus, decreased allantoin formation was used as a proxy of GLUT9B inhibition. Briefly, clonal cells were plated (53,000 cells/cm^2) in DMEM with 10% FBS. Twenty-four hours later, A. oryzae uricase was transfected, and assay conducted 3 days later across a 12-point curve in buffer (in mM: 125 sodium gluconate, 4.8 potassium gluconate, 1.2 calcium gluconate, 1.2 potassium phosphate, 1.2 magnesium sulfate4, 25 HEPES; pH 7.4) with uric acid at the GLUT9B Km (0.3 mM) for 15 min or for 60 min, at 37° C. Following wash (Hanks, 37° C.), plates were sealed, incubated (5 min, RT) and cells freeze-thawed prior to lysing in water and shaking (30 min RT). Lysates were filtered through PVDF and subjected to MSMS using a 10 mM ammonium acetate-based mobile phase on a porous graphitic carbon column. Allantoin was detected in positive ion mode. Desired analyte concentrations were quantitated by integrating the area under the curve followed by a log-logistic regression model and data compared to a standard curve prepared in a matching HEK293T biological matrix.
Mass spectrometry measurement of allantoin was completed using an Agilent RapidFire 300 coupled to a Sciex API 4000 mass spectrometer. The stationary phase was an Agilent cartridge D (hypercarb). Mobile phase A was 10 mM ammonium acetate. Mobile phase B was 5 mM ammonium acetate, 25% acetonitrile, 25% acetone. Allantoin was detected in positive ion mode with the following compound ID settings: Q1 159, Q3 115.8, DP 57, CE 12.5 Dwell 100 ms. The source settings were CAD 10, CUR 20, GS1 50, GS250 IS/NC: 5000, TEM 650, EP 10, CXP 10 where Q1 and Q3 resolution were set to low.
Data was quantitated using Area under the curve integration was performed with the RapidFire™ Integrator (Agilent Technologies) for the desired analytes. Quantitation was completed using in a using a log-logistic regression model using allantoin in matching HEK293T biological matrix.
Regarding `CCCCc1cnc(-c2ccc(OC)cc2)c(-c2ccc3c(C(=O)O)c[nH]c3c2)c1` [Compound 39, 6-(5-butyl-2-(4-methoxyphenyl)pyridin-3-yl)-1H-indole-3-carboxylic acid], the IC50 was < 500 nM. Consider `CCCCc1cnc(-c2ccc(OC)cc2)c(-c2ccc3c(C(=O)O)coc3c2)c1` [Compound 40, 6-(5-butyl-2-(4-methoxyphenyl)pyridin-3-yl)benzofuran-3-carboxylic acid], for which the half-inhibitory concentration (IC50) was < 500 nM. On to `CCCCc1cnc(-c2ccc(OC)cc2)c(N2CCc3c(C(=O)O)csc3C2)n1` [Compound 41, 6-(6-butyl-3-(4-methoxyphenyl)pyrazin-2-yl)-4,5,6,7-tetrahydrothieno[2,3-c]pyridine-3-carboxylic acid], for which the IC50 lay in the range of 500 to 2000 nM. Under `CCCCc1cnc(-c2ccc(OCCOC(F)(F)F)cc2)c(N2CCC(C(=O)O)CC2)n1` [Compound 42, 1-(6-butyl-3-(4-(2-(trifluoromethoxy)ethoxy)phenyl)pyrazin-2-yl)piperidine-4-carboxylic acid] stands > 2000 nM; under `CCCCc1cnc(-c2ccc(OC)s2)c(N2CCC(C(=O)O)CC2)n1` [Compound 43, 1-(6-butyl-3-(5-methoxythiophen-2-yl)pyrazin-2-yl)piperidine-4-carboxylic acid], > 2000 nM; under `CCCCc1cnc(-c2cnc(OC)s2)c(N2CCC(C(=O)O)CC2)n1` [Compound 44, 1-(6-butyl-3-(2-methoxythiazol-5-yl)pyrazin-2-yl)piperidine-4-carboxylic acid], > 2000 nM. As for `CCCCc1cnc(-c2ccc3c(c2)OCO3)c(N2CCC(C(=O)O)CC2)n1` [Compound 45], the 50% inhibitory concentration (IC50) is < 500 nM. Then `CCCCc1cnc(-c2cc(F)c3c(c2)OCO3)c(N2CCC(C(=O)O)CC2)n1` [Compound 46, 1-(6-butyl-3-(7-fluorobenzo[d][1,3]dioxol-5-yl)pyrazin-2-yl)piperidine-4-carboxylic acid], with < 500 nM. `CCCCc1cnc(-c2ccc3c(c2)C(=O)CO3)c(N2CCC(C(=O)O)CC2)n1` [Compound 47, 1-(6-butyl-3-(3-oxo-2,3-dihydrobenzofuran-5-yl)pyrazin-2-yl)piperidine-4-carboxylic acid]: the IC50 is 500 to 2000 nM. As for `CCCCc1cnc(-c2ccc(OC)cc2)c(N2CCC(CCC(=O)O)CC2)n1` [Compound 48, 3-(1-(6-butyl-3-(4-methoxyphenyl)pyrazin-2-yl)piperidin-4-yl)propanoic acid], the IC50 is < 500 nM.

Regarding `COCc1cnc(-c2cc(F)c3occc3c2)c(N2CCC(C(=O)O)CC2)n1` [Compound 49, 1-(3-(7-fluorobenzofuran-5-yl)-6-(methoxymethyl)pyrazin-2-yl)piperidine-4-carboxylic acid], the concentration for half-maximal inhibition (IC50) fell in the range of 500 to 2000 nM. For `COCCn1ccc2cc(-c3ncc(COC)nc3N3CCC(C(=O)O)CC3)cc(F)c21` [Compound 50, 1-(3-(7-fluoro-1-(2-methoxyethyl)-1H-indol-5-yl)-6-(methoxymethyl)pyrazin-2-yl)piperidine-4-carboxylic acid], the concentration for half-maximal inhibition (IC50) is > 2000 nM. Under `COCc1cnc(-c2cc(F)c3c(ccn3C)c2)c(N2CCC(C(=O)O)CC2)n1` [Compound 51, 1-(3-(7-fluoro-1-methyl-1H-indol-5-yl)-6-(methoxymethyl)pyrazin-2-yl)piperidine-4-carboxylic acid] stands > 2000 nM; under `COCc1cnc(-c2cc(F)c3ccn(C)c3c2)c(N2CCC(C(=O)O)CC2)n1` [Compound 52, 1-(3-(4-fluoro-1-methyl-1H-indol-6-yl)-6-(methoxymethyl)pyrazin-2-yl)piperidine-4-carboxylic acid], < 500 nM.

For the molecule `COCC(COC)Cc1cnc(-c2cc(F)c3occc3c2)c(N2CCC(C(=O)O)CC2)n1` [Compound 53, 1-(3-(7-Fluorobenzofuran-5-yl)-6-(3-Methoxy-2-(methoxymethyl)propyl)pyrazin-2-yl)piperidine-4-carboxylic acid], the half-inhibitory concentration (IC50) was < 500 nM. On to `COc1ccc(-c2nc(Cl)c(COCC(F)(F)F)nc2N2CCC(C(=O)O)CC2)cc1` [Compound 54, 1-(5-chloro-3-(4-methoxyphenyl)-6-((2,2,2-trifluoroethoxy)methyl)pyrazin-2-yl)piperidine-4-carboxylic acid], for which the IC50 is > 2000 nM. On to `COCc1cnc(-c2cc(F)c3c(c2)CCO3)c(N2CCC(C(=O)O)CC2)n1` [Compound 55, 1-(3-(7-fluoro-2,3-dihydrobenzofuran-5-yl)-6-(methoxymethyl)pyrazin-2-yl)piperidine-4-carboxylic acid], for which the IC50 lay within 500 to 2000 nM. Consider `COCc1nc(N2CCC(C(=O)O)CC2)c(-c2cc(F)c3c(ccn3C)c2)nc1Cl` [Compound 56, 1-(5-chloro-3-(7-fluoro-1-methyl-1H-indol-5-yl)-6-(methoxymethyl)pyrazin-2-yl)piperidine-4-carboxylic acid], for which the IC50 is > 2000 nM. Then `O=C(O)C1CCN(c2nc(COCC(F)(F)F)cnc2-c2ccc3oc(F)cc3c2)CC1` [Compound 57, 1-(3-(2-fluorobenzofuran-5-yl)-6-((2,2,2-trifluoroethoxy)methyl)pyrazin-2-yl)piperidine-4-carboxylic acid], with > 2000 nM; and `O=C(O)C1CCN(c2nc(COCC(F)(F)F)cnc2-c2ccc(Cl)c(OC(F)(F)F)c2)CC1` [Compound 58, 1-(3-(4-chloro-3-(trifluoromethoxy)phenyl)-6-((2,2,2-trifluoroethoxy)methyl)pyrazin-2-yl)piperidine-4-carboxylic acid], with > 2000 nM. Then `O=C(O)c1c[nH]c2cc(-c3cc(COC(F)(F)F)cnc3-c3cc(F)c4occc4c3)ccc12` [Compound 59, 6-(2-(7-fluorobenzofuran-5-yl)-5-((trifluoromethoxy)methyl)pyridin-3-yl)-1H-indole-3-carboxylic acid], with < 500 nM; and `O=C(O)C1CCN(c2nc(CCC(F)(F)F)cnc2-c2ccc3oc(F)cc3c2)CC1` [Compound 60, 1-(3-(2-fluorobenzofuran-5-yl)-6-(3,3,3-trifluoropropyl)pyrazin-2-yl)piperidine-4-carboxylic acid], with 500 to 2000 nM; and `O=C(O)C1CCN(c2nc(CCC(F)(F)F)cnc2-c2cc(F)c3occc3c2)CC1` [Compound 61, 1-(3-(7-Fluorobenzofuran-5-yl)-6-(3,3,3-Trifluoropropyl)Pyrazin-2-yl)piperidine-4-carboxylic acid], with < 500 nM. Take `COc1cc(-c2ncc(CCC(F)(F)F)nc2N2CCC(C(=O)O)CC2)ccc1Cl` [Compound 62, 1-(3-(4-chloro-3-methoxyphenyl)-6-(3,3,3-trifluoropropyl)pyrazin-2-yl)piperidine-4-carboxylic acid]: the IC50 was > 2000 nM.

What is called IC50 is the midpoint of a concentration-inhibition curve.
